Results as given in ChEMBL document CHEMBL1201862, “PubChem BioAssay data set” (2004).
Activity calls are given as the source filed them.

Key:
[1] = biological target: T1, DNA repair protein RAD52 homolog (Homo sapiens, UniProt P43351); type: functional, biochemical
T1 sequence (P43351 whole entry): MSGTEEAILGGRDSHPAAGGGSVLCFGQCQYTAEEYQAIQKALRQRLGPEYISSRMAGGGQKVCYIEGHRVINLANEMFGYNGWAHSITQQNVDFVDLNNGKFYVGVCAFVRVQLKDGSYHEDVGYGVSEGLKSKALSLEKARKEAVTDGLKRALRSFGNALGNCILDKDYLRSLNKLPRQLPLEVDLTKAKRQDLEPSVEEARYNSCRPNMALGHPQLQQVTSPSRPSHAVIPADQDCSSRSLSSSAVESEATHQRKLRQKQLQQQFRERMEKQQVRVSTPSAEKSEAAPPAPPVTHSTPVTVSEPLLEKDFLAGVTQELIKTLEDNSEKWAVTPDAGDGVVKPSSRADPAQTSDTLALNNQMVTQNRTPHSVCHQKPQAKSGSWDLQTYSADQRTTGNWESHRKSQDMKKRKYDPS

[2] = biological target: T2, DNA repair and recombination protein RAD54-like (Homo sapiens, UniProt Q92698); assay: RAD54 Holliday junction migration blockers – biochemical, fluorescence, cherry-picked samples, dose series, confirmation (AID 651657); type: functional
T2 sequence (Q92698 whole entry): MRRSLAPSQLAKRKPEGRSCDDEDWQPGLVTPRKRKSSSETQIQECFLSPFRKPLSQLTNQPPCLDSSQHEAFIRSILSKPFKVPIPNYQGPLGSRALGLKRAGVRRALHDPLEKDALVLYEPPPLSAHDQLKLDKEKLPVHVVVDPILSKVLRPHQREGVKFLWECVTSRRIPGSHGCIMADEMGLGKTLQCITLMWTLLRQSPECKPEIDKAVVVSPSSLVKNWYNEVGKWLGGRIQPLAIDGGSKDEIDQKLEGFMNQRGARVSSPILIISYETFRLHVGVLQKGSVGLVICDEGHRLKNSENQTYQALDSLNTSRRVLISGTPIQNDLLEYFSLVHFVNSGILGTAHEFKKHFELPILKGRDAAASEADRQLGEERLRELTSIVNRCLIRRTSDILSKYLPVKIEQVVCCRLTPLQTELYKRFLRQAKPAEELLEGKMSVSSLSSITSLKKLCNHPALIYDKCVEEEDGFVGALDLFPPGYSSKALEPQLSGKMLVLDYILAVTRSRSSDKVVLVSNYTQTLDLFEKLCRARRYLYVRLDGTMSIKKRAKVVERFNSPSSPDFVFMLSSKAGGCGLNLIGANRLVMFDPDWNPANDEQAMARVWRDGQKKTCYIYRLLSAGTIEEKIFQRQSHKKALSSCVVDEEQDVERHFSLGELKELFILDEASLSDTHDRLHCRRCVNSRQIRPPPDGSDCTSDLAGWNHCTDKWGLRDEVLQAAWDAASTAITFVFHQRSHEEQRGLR

[3] = A549 cell cytotoxicity, dose response, cytotoxicity control, plate reader, cherry-pick, antagonist series (AID 743412); type: functional, cell-based
[4] = alpha-synuclein stem-loop luciferase translation blockers – H4 neuroglioma cells, luminescence, confirmation (AID 1988); type: functional, cell-based
[5] = blockers of bursicon-stimulated LGR2 cAMP reporter – cell-based, HEK293, CRE-luciferase reporter, cherry pick, set 2, dose response (AID 743343); type: functional;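 further: transfected cells were stimulated with diluted bursicon conditioned medium after compound addition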
[6] = blockade of melanocortin 4 receptor signaling – cell-based, plate reader, cherry pick, counter-screen for LGR2 antagonist project, dose response (AID 743444); type: functional;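 further: transfected HEK 293 cells stimulated with alpha-MSH peptide; potency of inhibitors of the alpha-MSH evoked signal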
[7] = biological target: T3, Heat shock factor protein 1 (Mus musculus, UniProt P38532); assay: decrease of HSF1-responsive luciferase luminescence – cell-based, NIH3T3, dose retest, confirmation (AID 2382); type: functional;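 further: NIH3T3 fibroblasts with HSF1-driven luciferase reporter stressed by proteasome inhibitor MG132; luminescence from HSF1-driven luciferase expression after 8 hours of MG132 stress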
T3 sequence (P38532 whole entry): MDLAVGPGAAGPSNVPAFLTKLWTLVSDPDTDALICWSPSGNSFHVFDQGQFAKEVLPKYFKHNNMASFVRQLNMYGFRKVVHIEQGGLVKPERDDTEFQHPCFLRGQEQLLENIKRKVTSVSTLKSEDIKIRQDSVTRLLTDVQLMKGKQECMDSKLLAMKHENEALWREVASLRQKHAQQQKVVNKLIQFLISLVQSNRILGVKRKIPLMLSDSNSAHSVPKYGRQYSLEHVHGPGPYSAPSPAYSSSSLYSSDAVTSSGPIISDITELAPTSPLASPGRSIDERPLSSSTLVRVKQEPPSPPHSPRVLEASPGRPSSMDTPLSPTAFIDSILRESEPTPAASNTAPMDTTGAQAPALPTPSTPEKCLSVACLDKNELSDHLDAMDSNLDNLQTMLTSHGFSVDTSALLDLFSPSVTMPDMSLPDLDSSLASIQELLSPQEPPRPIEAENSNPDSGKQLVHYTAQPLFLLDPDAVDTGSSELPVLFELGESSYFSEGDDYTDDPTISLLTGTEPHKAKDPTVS

[8] = toxicity toward HepG2 liver cells – cell-based, plate reader, cherry-pick, antagonist series, cytotoxicity control, dose response (AID 743416); type: functional
[9] = viability loss in HEK293 cells – cell-based, plate reader, cherry-picked samples, cytotoxicity control, dose response (AID 743446); type: functional
[10] = Luminescence Cell-Based Dose Response HTS to Identify Inhibitors of 5'UTR Stem-Loop Driven Prion Protein mRNA Translation in H4 Neuroglioblastoma Cells. [Related pubchem assays: 1827 (Project Summary), 1813 (Primary HTS)]; type: functional
[11] = HIV-1 AD8 envelope cell-cell fusion blockers – cherry-pick, dose response (AID 652062); type: functional, cell-based;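 further: luciferase signal from cell-cell fusion driven by HIV-1 clade B AD8 Env; potency is for inhibitors of fusion seen as a drop in luminescence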
[12] = biological target: T4, Corticotropin-releasing factor receptor 2/Corticotropin-releasing factor-binding protein (Homo sapiens, UniProt P24387+Q13324); assay: activators of CRF receptor 2 with binding protein – uHTS hits, confirmation (AID 602473); type: functional; conditions: read-out: EC50_Mean
T4 sequence (Q13324 whole entry): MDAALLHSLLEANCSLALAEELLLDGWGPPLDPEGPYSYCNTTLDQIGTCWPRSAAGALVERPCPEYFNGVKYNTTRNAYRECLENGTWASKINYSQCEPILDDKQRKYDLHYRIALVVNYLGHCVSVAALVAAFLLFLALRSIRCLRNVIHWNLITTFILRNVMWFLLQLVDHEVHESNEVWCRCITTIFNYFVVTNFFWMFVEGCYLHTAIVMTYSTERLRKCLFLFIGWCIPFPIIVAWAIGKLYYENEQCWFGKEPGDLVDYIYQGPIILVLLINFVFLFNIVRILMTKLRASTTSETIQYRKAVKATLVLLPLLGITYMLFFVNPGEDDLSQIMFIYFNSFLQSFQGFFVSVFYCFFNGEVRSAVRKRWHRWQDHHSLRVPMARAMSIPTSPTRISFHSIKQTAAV
T4 sequence (P24387 whole entry): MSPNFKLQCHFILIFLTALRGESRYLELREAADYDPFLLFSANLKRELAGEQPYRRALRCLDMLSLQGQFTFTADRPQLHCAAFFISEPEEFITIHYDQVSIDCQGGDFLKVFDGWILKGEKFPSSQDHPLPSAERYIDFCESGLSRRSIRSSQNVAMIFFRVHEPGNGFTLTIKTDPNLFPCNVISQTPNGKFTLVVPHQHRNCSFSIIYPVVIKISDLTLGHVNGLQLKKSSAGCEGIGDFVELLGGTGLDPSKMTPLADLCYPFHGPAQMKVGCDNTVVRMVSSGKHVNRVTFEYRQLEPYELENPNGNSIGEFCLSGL

[13] = off-target signal loss in HeLa-CEM21 co-culture – HeLa F-luc CTL cells, cherry-picked, counter-screen for HIV-1 Env fusion inhibitor project, dose response (AID 652040); type: functional, cell-based;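 further: potency for signal decrease marking cytotoxic or nonspecific inhibition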
HEK293 = assay: EBV LMP1 TES2 canonical NF-kB signalling blockers – cell-based, HEK293, luciferase, cherry-pick, dose response (AID 588343); type: functional; conditions: Homo sapiens
[14] = blockers of HIV-1 ZM109 envelope-driven cell-cell fusion – HeLa effector, CEM target cells, luciferase, cherry-pick, dose response (AID 652058); type: functional, cell-based;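 further: luciferase signal from HIV-1 Env mediated cell-cell fusion of effector and target cells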
[15] = blockers of HIV-1 envelope-mediated cell-cell fusion – cherry-pick, dose response (AID 652057); type: functional, cell-based
Paired box protein Pax-8 = Paired box protein Pax-8 (Homo sapiens, UniProt Q06710); assay: PAX8 transcriptional activity inhibition in RMG-I – RMG-I cells, luciferase, cherry-pick, dose response (AID 687027); type: functional, cell-based;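 further: luciferase reporter driven by Pax8 target thyroperoxidase promoter measured by SteadyGlo luminescence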
Sequence of Paired box protein Pax-8 (Q06710 whole entry, the tested form may be a part): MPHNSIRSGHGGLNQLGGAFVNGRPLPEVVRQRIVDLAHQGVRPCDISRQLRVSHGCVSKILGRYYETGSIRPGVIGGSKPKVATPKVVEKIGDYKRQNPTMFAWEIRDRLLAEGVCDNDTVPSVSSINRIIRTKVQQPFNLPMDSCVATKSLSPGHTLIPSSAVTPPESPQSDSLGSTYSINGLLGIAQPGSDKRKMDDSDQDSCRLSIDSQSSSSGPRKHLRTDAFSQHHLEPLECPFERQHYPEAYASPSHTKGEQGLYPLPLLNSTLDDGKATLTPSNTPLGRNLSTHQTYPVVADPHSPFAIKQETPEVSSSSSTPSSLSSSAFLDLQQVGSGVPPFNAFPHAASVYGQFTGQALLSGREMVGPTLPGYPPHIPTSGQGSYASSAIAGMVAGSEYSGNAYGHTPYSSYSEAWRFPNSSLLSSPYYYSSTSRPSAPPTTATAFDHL

[16] = viability loss in CEM21 cells – cell-based, CellTiter-Glo luminescence, cherry-picked, cytotoxicity control for viral fusion inhibitor project, dose response (AID 652042); type: functional;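 further: potency for signal decrease meaning cytotoxicity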
[17] = general cell-killing toxicity readout – plate reader, dry powder samples, cytotoxicity control for PAX8 inhibitor project, dose response (AID 743021); type: functional, cell-based
[18] = potency of ADAM10 substrate cleavage blockers – biochemical, QFRET, dose response (AID 743254);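 further: ADAM10 enzyme with the DM2 quenched FRET peptide as substrate; EDANS fluorescence gain as the protease cuts the substrate; inhibitor potency against ADAM10 proteolytic activity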
[19] = general mammalian cell viability loss – inhibitor set, cherry-pick, set 2, cytotoxicity control for miR-122 modulator project, dose response (AID 720697); type: functional, cell-based
cells [20] = type: functional, cell-based
[21] = biological target: T5, Trace amine-associated receptor 1 (Homo sapiens, UniProt Q96RJ0); assay: Counterscreen for agonists of the human trace amine associated receptor 1 (hTAAR1): Fluorescence-based cell-based high throughput dose response assay to identify hTAAR1 agonist that also desensitize TAAR1 receptor response.; type: functional
T5 sequence (Q96RJ0 whole entry): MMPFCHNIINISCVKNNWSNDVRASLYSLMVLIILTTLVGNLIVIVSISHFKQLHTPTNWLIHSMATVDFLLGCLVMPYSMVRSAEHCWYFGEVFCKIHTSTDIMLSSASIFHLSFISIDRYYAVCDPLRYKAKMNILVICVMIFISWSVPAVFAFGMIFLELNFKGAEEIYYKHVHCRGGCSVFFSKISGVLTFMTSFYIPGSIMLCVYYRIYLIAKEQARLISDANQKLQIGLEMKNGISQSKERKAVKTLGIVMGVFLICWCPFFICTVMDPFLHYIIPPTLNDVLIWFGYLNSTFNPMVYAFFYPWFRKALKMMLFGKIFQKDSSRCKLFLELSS

cells [22] = type: functional, cell-based; remark: listed apart in the source
[23] = biological target: T5, Trace amine-associated receptor 1; assay: Fluorescence-based cell-based high throughput dose response assay to identify agonists of the human trace amine associated receptor 1 (TAAR1).; type: functional
[24] = biological target: Disintegrin and metalloproteinase domain-containing protein 17 (Homo sapiens, UniProt P78536); assay: inhibition of ADAM17 substrate cleavage – biochemical, quenched FRET substrate, counter-screen for ADAM10 exosite inhibitor project, dose response (AID 743253)
Sequence of Disintegrin and metalloproteinase domain-containing protein 17 (P78536 whole entry, the tested form may be a part): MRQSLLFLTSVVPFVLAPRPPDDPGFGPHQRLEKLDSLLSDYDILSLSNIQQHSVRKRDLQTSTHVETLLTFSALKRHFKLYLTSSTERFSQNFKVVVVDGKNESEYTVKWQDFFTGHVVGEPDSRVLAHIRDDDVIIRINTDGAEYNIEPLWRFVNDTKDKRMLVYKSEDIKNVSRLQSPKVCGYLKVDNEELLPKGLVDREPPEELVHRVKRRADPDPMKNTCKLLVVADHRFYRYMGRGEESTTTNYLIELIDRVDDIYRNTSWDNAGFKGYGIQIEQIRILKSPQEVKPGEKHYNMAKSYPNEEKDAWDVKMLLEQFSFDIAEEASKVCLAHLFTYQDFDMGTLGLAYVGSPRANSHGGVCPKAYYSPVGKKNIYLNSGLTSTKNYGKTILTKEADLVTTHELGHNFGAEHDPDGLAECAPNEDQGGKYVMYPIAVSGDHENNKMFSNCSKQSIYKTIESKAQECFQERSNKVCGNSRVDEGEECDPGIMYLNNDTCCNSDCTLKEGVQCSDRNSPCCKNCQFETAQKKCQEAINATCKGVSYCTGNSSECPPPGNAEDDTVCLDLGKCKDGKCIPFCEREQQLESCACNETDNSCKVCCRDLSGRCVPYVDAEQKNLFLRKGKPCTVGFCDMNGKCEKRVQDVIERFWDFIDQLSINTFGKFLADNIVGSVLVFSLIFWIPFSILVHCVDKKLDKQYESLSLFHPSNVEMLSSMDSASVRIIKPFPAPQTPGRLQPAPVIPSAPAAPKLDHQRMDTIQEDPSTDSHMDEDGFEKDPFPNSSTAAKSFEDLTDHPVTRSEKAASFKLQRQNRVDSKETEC

COc1ccc(C)c2sc(N(CCN(C)C)C(=O)c3ccc4ccccc4c3)nc12
AC50 [1]: 14.1 µM (active) | AC50 [2]: 79.4 µM (active)

Cc1ccc(-c2nc(-c3ccccc3)no2)c(Cl)c1
AC50 [3]: > 52 µM (inactive) | EC50 [4]: 9.82 µM (inconclusive) | AC50 [5]: 0.842 µM (active) | AC50 [6]: 1.26 µM (active) | EC50 [7]: < 0.16 µM (active) | AC50 [8]: > 52 µM (inactive) | AC50 [9]: 39.7 µM (active) | EC50 [10]: 8.33 µM (active)

C(=Cc1cnc2ccccc2n1)c1ccc2c(c1)OCO2
AC50 [3]: 10.7 µM (active) | AC50 [11]: 3.91 µM (active) | EC50 [12]: > 53 µM (inactive) | AC50 [13]: 4.37 µM (active) | AC50 (HEK293): 0.173 µM (active) | AC50 [5]: 0.263 µM (active) | AC50 [14]: 13.5 µM (active) | AC50 [6]: 0.25 µM (active) | AC50 [15]: 2.05 µM (active) | AC50 (Paired box protein Pax-8): 2.92 µM (active) | AC50 [16]: 42.1 µM (active) | AC50 [8]: 24.6 µM (active) | AC50 [9]: 17 µM (active) | AC50 [17]: 6.27 µM (active)

Cc1ccc(C(S)=NCS(=O)(=O)c2ccc(C)cc2)cc1
IC50 [18]: 5.2 µM (active)

CCNC(=O)C[C@H]1CC[C@@H]2[C@@H](COc3ccc(NC(=O)c4cccc(C(F)(F)F)c4)cc3C(=O)N2C)O1
AC50 [19]: 0.469 µM (active)

O=C(NCCc1ccccc1Cl)[C@@H]1CCCN1C(=O)[C@@H](NC(=O)N1CCOCC1)C1CCCCC1
EC50 (cells [20]): > 29.9 µM (inactive) | IC50 [21]: 6.35 µM (active) | IC50 (cells [22]): > 29.9 µM (inactive) | EC50 [23]: 5.36 µM (active)

Cc1ccc(C(=S)NCS(=O)(=O)c2ccc(C)cc2)cc1
IC50 [24]: 14.5 µM (inactive)

Nc1c(C(=O)N2CCOCC2)sc2nc3c(cc12)CCCC3
AC50 [3]: > 52 µM (inactive) | AC50 [5]: 2.38 µM (active) | AC50 [6]: 3.2 µM (active) | AC50 [8]: > 52 µM (inactive) | AC50 [9]: > 52 µM (inactive)
